Where two headings read alike, the source gives them in different places.
Tests used:
[1] = test system: potted vines; experiment: Tolerance by potted vines in greenhouse; spray application; assay type: in vivo; conditions: for Potted vines - leaf damage: 4.0 and 8.0 kg/ha
Experimental: (§1) Plastic flowerpots having a volume of 300 cm^3 were filled with a sandy loam and the test plants placed therein (either as seed, as vegetatively reproduced species, or as potted plants, e.g., vines). For preemergence treatment, the active ingredients were suspended or emulsified in water as vehicle and sprayed onto the surface of the soil immediately after sowing by means of finely distributing nozzles. The potted vines were treated by spraying them with the correspondingly diluted liquor. For postemergence treatment, the agents were, as stated above, sprayed in water onto the leaves of the test plants, some liquor also falling onto the soil. In some special cases, solid active ingredients were first dissolved in dimethylformamide and then applied in a total liquor amount of 400 liters of water per hectare. For the postemergence treatment, the plants were first grown to a height of from 3 to 10 cm before being treated. With grasses, the first growth was cut, and the new growth treated 2 to 3 days after cutting. The temperature requirements of the plants were taken into account by placing them in cooler or warmer sections of the greenhouse. The experiments were run for from 4 to 6 weeks, during which time the plants were tended and their reaction to the various treatments was assessed.
(§2) The application rates are given in kg/ha of active ingredient, regardless of the method of application and the amount of water used.
(§3) A 0 to 100 scale was used for the evaluation, 0 denoting normal emergence or no damage (or no inhibition), and 100 denoting non-emergence or complete destruction of the plants. A distinction should be made in the influence on growth between desired changes without any appreciable disadvantageous phytotoxic effects (e.g., purely growth-regulating effects) and those of a phytotoxic herbicical character.

[2] = test system: Poa pratensis; experiment: Growth inhibition in lawns, preemergence treatment in the greenhouse; assay type: in vivo
Experimental: as §1, §2, §3

[3] = test system: Sinapis alba; experiment: Herbicidal action, pre- and postemergence application in the greenhouse; assay type: in vivo; conditions: post-emergence, read-out: % damage
Experimental: as §1, §2, §3

[4] = test system: Ipom. spp.; experiment: as above; assay type: in vivo, Ipomoea spp.; conditions: Ipomoea, post-emergence; 3.0 kg/ha POST; read-out: % damage
Experimental: as §1, §2, §3

[5] = test system: Galium apar.; experiment: as above; assay type: in vivo, Galium aparine; conditions: post-emergence, 3.0 kg/ha POST, read-out: % damage
Experimental: as §1, §2, §3

[6] = test system: Lolium mult.; experiment: as above; assay type: in vivo; conditions: Lolium, post-emergence, read-out: % damage
Experimental: as §1, §2, §3

[7] = test system: Mentha piper.; experiment: as above; assay type: in vivo; conditions: post-emergence; 3.0 kg/ha POST; read-out: % damage
Experimental: as §1, §2, §3

[8] = test system: spring rye; experiment: Growth height of spring rye, leaf treatment, Example 11; assay type: in vivo, spring rye ("Petkuser" variety)
Experimental: (§4) The test plants--spring wheat ("Opal" variety), spring barley ("Union" variety) and spring rye ("Petkuser" variety)--were grown under greenhouse conditions in plastic dishes 11.5 cm in diameter, in a peat substrate provided with sufficient nutrients.
(§5) Leaf treatment was effected by spraying the plants at a growth height of 11 cm with aqueous formulations of the active ingredients, at three application rates.
(§6) The shortening effect caused by the compounds was shown by measurements of the height of the plants at the end of the experiment.
(§7) The prior art compound N,N,N-trimethyl-N-β-chloroethylammonium chloride (CCC, German Printed Application DAS No. 1,294,734) was used for comparison purposes.

[9] = test system: spring barley; experiment: Growth height of spring barley, soil treatment, Example 11; assay type: in vivo, spring barley ("Union" variety)
Experimental: as §4
(§8) The soil (preemergence) treatment was effected after sowing by pouring aqueous formulations of the active ingredients, at four application rates, onto the surface of the substrate.
as §6, §7

[10] = test system: spring wheat; experiment: Growth height of spring wheat, soil (preemergence) treatment, Example 9; assay type: in vivo, spring wheat ("Opal" variety); conditions: 30 days
Experimental: (§9) Spring wheat of the "Opal" variety and spring barley of the "Union" variety were grown in the winter half of the year under greenhouse conditions in plastic dishes 11.5 cm in diameter, in a peat substrate provided with sufficient nutrients.
(§10) The reductions in growth height caused by the treatment were determined by measuring the height of the plants at the end of the experiment after 30 days' growth, and comparing it with that of untreated plants.

[11] = test system: spring rye; experiment: Growth height of spring rye, soil treatment, Example 11; assay type: in vivo, spring rye ("Petkuser" variety)
Experimental: as §4, §8, §6, §7

[12] = test system: spring barley; experiment: Growth height of spring barley, soil (preemergence) treatment, Example 9; assay type: in vivo, spring barley ("Union" variety); conditions: 30 days
Experimental: as §9, §10

[13] = test system: spring barley; experiment: Growth height of spring barley, leaf treatment, Example 11; assay type: in vivo, spring barley ("Union" variety)
Experimental: as §4, §5, §6, §7

[14] = test system: spring wheat; experiment: Growth height of spring wheat, leaf treatment, Example 11; assay type: in vivo, spring wheat ("Opal" variety)
Experimental: as §4, §5, §6, §7

CCNc1nc(Cl)nc(NCC)n1
Potted vines - leaf damage [1]: chlorotic yellow- ing, necroses
Change in shoot growth ([1]; 4.0 kg/ha): 17.3 cm
Change in shoot growth ([1]; 8.0 kg/ha): 10.3 cm

N#Cc1c(Cl)cccc1Cl
Potted vines - leaf damage [1]: slight chlorosis
Change in shoot growth ([1]; 4.0 kg/ha): 15.3 cm
Change in shoot growth ([1]; 8.0 kg/ha): 15.7 cm

[O-][N+]1=NC2C3CC(C4C3N4c3ccc(Br)cc3)C21 (stereo not shown)
Growth after emergence, remark ([2]; 0.5 to 4.0 kg/ha): very short growth overall; grass compact
inhibition at 500 g/ha ([2]; Poa pratensis, pre-emergence, 0.5 kg/ha, read-out: % growth inhibition after emergence): 50%
inhibition at 1000 g/ha ([2]; Poa pratensis, pre-emergence, 1.0 kg/ha, read-out: % growth inhibition after emergence): 60%
inhibition at 2000 g/ha ([2]; Poa pratensis, pre-emergence, 2.0 kg/ha, read-out: % growth inhibition after emergence): 60%
inhibition at 4000 g/ha ([2]; Poa pratensis, pre-emergence, 4.0 kg/ha, read-out: % growth inhibition after emergence): 70%

BrC1=CC2CC1C1N=NC21 (stereo not shown)
pest or weed control at 3000 g/ha ([3]; 3.0 kg/ha POST): 100%

O=C1NC2C3CC(C(Br)C3Br)C12 (stereo not shown)
pest or weed control at 3000 g/ha [4]: 95%
pest or weed control at 3000 g/ha [5]: 70%
pest or weed control at 3000 g/ha ([6]; 3.0 kg/ha POST): 95%
pest or weed control at 3000 g/ha [7]: 40%

[O-][N+]1=NC2C3CC(C(Br)C3Br)C21 (stereo not shown)
pest or weed control at 3000 g/ha [4]: 60%
pest or weed control at 3000 g/ha [5]: 40%
pest or weed control at 3000 g/ha ([6]; 3.0 kg/ha POST): 85%
pest or weed control at 3000 g/ha ([6]; 3.0 kg/ha PRE): 80%
pest or weed control at 3000 g/ha [7]: 95%
pest or weed control at 3000 g/ha ([3]; 3.0 kg/ha PRE): 80%

Cc1ccc(NC2C(Cl)C3CC2C2N=NC32)cc1 (stereo not shown)
pest or weed control at 3000 g/ha [4]: 100%
pest or weed control at 3000 g/ha [5]: 75%
pest or weed control at 3000 g/ha ([6]; 3.0 kg/ha POST): 100%
pest or weed control at 3000 g/ha ([6]; 3.0 kg/ha PRE): 80%
pest or weed control at 3000 g/ha [7]: 100%
pest or weed control at 3000 g/ha ([3]; 3.0 kg/ha PRE): 100%

ClC1C2CC(C3N=NC23)C1Nc1nccs1 (stereo not shown)
pest or weed control at 3000 g/ha [4]: 80%
pest or weed control at 3000 g/ha [5]: 80%
pest or weed control at 3000 g/ha ([6]; 3.0 kg/ha POST): 100%
pest or weed control at 3000 g/ha [7]: 100%

C[N+](C)(C)CCCl.[Cl-] [CCC, N,N,N-trimethyl-N-β-chloroethylammonium chloride, reference compound]
Plant height ([8]; 0.75 kg/ha): 27.0 cm
Plant height, % of untreated control ([8]; 0.75 kg/ha): 94.7%
Plant height ([8]; 1.50 kg/ha): 25.5 cm
Plant height, % of untreated control ([8]; 1.50 kg/ha): 89.5%
Plant height ([8]; 3.00 kg/ha): 25.5 cm
Plant height, % of untreated control ([8]; 3.00 kg/ha): 89.5%
Plant height ([9]; 0.75 kg/ha): 29.5 cm
Plant height, % of untreated control ([9]; 0.75 kg/ha): 89.9%
Plant height ([9]; 1.50 kg/ha): 29.5 cm
Plant height, % of untreated control ([9]; 1.50 kg/ha): 89.9%
Plant height ([9]; 3.00 kg/ha): 27.5 cm
Plant height, % of untreated control ([9]; 3.00 kg/ha): 83.8%
Plant height ([9]; 6.00 kg/ha): 26.0 cm
Plant height, % of untreated control ([9]; 6.00 kg/ha): 79.3%
Plant height ([10]; 3 kg/ha): 21.5 cm
Plant height, % of untreated control ([10]; 3 kg/ha): 71.7%
Plant height ([10]; 12 kg/ha): 19.5 cm
Plant height, % of untreated control ([10]; 12 kg/ha): 65.0%
Plant height ([11]; 0.75 kg/ha): 31.5 cm
Plant height, % of untreated control ([11]; 0.75 kg/ha): 97.5%
Plant height ([11]; 1.50 kg/ha): 30.5 cm
Plant height, % of untreated control ([11]; 1.50 kg/ha): 94.4%
Plant height ([11]; 3.00 kg/ha): 30.0 cm
Plant height, % of untreated control ([11]; 3.00 kg/ha): 92.9%
Plant height ([11]; 6.00 kg/ha): 28.5 cm
Plant height, % of untreated control ([11]; 6.00 kg/ha): 88.2%
Plant height ([12]; 3 kg/ha): 27.5 cm
Plant height, % of untreated control ([12]; 3 kg/ha): 85.1%
Plant height ([12]; 12 kg/ha): 24.5 cm
Plant height, % of untreated control ([12]; 12 kg/ha): 75.9%
Plant height ([13]; 0.75 kg/ha): 27.5 cm
Plant height, % of untreated control ([13]; 0.75 kg/ha): 98.4%
Plant height ([13]; 1.50 kg/ha): 27.0 cm
Plant height, % of untreated control ([13]; 1.50 kg/ha): 97.1%
Plant height ([13]; 3.00 kg/ha): 27.0 cm
Plant height, % of untreated control ([13]; 3.00 kg/ha): 97.1%
Plant height ([14]; 0.75 kg/ha): 27.5 cm
Plant height, % of untreated control ([14]; 0.75 kg/ha): 89.3%
Plant height ([14]; 1.50 kg/ha): 26.0 cm
Plant height, % of untreated control ([14]; 1.50 kg/ha): 84.4%
Plant height ([14]; 3.00 kg/ha): 25.0 cm
Plant height, % of untreated control ([14]; 3.00 kg/ha): 81.2%

C1C2C3N=NC3C1C1OC21 (stereo not shown) [drawing 388]
Plant height ([10]; 3 kg/ha): 21.5 cm
Plant height, % of untreated control ([10]; 3 kg/ha): 71.7%
Plant height ([10]; 12 kg/ha): 12.5 cm
Plant height, % of untreated control ([10]; 12 kg/ha): 41.7%

c1ccc(C2=NOC3C4CC(C5N=NC45)C23)cc1 (stereo not shown) [drawing 389]
Plant height ([10]; 3 kg/ha): 20.0 cm
Plant height, % of untreated control ([10]; 3 kg/ha): 66.7%
Plant height ([10]; 12 kg/ha): 14.0 cm
Plant height, % of untreated control ([10]; 12 kg/ha): 46.7%

From patent US4259235A, “Tricyclic nitrogenous compounds having string plant growth regulating properties” (BASF Aktiengesellschaft, priority 1977, dated 1981)
